Test results: patent US20090215627A1, “Crystal Structure of Biotin Carboxylase (Bc) Domain of Acetyl-Coenzyme a Carboxylase and Methods of Use Thereof” (priority 2004, published 2009)

Columns and labels:
[1] = biological target: T1, Wild-type yeast BC domain (Saccharomyces cerevisiae, UniProt Q00955); test: radioactive binding assay, wild-type yeast BC domain; conditions: read-out: Kd (nM) (radiactive assay)
T1 construct: Residues 2-581 of yeast ACC were sub-cloned into the pET28a vector; made in house; host or cells: E. coli BL21(DE3) Rosetta
T1 sequence (Q00955 2-581): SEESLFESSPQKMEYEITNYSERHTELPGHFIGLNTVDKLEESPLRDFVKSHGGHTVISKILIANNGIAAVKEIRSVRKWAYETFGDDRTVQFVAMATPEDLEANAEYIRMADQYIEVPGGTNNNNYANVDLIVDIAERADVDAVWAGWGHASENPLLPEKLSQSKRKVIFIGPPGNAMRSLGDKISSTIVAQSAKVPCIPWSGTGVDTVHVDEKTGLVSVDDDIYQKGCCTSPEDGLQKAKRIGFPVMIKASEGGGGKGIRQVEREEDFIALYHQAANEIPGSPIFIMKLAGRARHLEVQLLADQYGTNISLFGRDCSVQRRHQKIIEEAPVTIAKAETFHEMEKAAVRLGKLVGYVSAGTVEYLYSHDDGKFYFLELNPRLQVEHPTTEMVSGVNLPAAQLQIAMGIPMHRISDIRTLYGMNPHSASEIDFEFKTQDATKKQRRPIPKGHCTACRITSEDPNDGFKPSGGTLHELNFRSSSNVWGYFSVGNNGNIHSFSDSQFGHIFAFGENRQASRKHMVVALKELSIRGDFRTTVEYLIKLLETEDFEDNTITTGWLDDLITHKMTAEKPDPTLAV
Description: (§1) The mutants were designed based on the structural information and made with the QuikChange kit (Stratagene). The mutants were sequenced, expressed in E. coli, and purified following the same protocol as that for the wild-type BC domain. The affinity of soraphen for the mutants were assessed using a radioactive binding assay (Weatherly et al., supra (2004)).

[2] = biological target: T2, I69E mutant yeast BC domain (Saccharomyces cerevisiae, UniProt Q00955, I69E); test: radioactive binding assay, I69E mutant; conditions: up to 60 nM soraphen A, 10 nM protein, read-out: Kd (nM) (radiactive assay)
T2 construct: Residues 2-581 of yeast ACC were sub-cloned into the pET28a vector; made in house; host or cells: E. coli
T2 sequence (Q00955 2-581 I69E): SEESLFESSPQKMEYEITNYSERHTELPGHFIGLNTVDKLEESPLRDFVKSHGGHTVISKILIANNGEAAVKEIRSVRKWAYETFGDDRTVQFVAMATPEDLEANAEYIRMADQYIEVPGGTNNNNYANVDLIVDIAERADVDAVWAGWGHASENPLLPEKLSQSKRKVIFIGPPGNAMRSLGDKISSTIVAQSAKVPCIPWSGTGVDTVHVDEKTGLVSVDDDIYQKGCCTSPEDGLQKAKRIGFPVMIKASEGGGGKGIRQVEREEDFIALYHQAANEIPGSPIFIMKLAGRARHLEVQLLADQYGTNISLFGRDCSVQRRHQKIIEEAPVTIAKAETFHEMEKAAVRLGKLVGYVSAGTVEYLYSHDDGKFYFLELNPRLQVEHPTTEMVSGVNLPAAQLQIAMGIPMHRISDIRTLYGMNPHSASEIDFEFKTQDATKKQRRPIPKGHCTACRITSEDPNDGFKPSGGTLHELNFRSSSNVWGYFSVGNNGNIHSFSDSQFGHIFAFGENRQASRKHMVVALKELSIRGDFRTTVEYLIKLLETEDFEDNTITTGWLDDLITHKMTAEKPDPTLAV
Description: as §1

[3] = biological target: T3, K73R mutant yeast BC domain (Saccharomyces cerevisiae, UniProt Q00955, K73R); test: radioactive binding assay, K73R mutant; conditions: up to 60 nM soraphen A, 10 nM protein, read-out: Kd (nM) (radiactive assay)
T3 construct: Residues 2-581 of yeast ACC were sub-cloned into the pET28a vector; made in house; host or cells: E. coli
T3 sequence (Q00955 2-581 K73R): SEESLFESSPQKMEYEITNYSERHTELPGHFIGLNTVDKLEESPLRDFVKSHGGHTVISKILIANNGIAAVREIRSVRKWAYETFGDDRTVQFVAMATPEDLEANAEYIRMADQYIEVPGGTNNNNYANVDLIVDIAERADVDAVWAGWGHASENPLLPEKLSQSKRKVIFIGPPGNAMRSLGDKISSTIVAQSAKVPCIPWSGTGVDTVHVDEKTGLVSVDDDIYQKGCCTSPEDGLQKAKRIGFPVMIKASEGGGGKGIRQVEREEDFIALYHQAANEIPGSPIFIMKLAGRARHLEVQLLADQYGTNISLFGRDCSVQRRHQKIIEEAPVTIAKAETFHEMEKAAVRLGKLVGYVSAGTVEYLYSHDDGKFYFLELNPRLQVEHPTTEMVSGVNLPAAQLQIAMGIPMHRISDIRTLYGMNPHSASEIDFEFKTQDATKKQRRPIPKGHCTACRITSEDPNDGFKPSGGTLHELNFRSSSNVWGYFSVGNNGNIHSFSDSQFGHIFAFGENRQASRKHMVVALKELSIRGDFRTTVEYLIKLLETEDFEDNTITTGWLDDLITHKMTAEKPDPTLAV
Description: as §1

[4] = biological target: T4, S77Y mutant yeast BC domain (Saccharomyces cerevisiae, UniProt Q00955, S77Y); test: radioactive binding assay, S77Y mutant; conditions: up to 60 nM soraphen A, 10 nM protein, read-out: Kd (nM) (radiactive assay)
T4 construct: Residues 2-581 of yeast ACC were sub-cloned into the pET28a vector; made in house; host or cells: E. coli
Description: as §1

[5] = biological target: T5, E477R mutant yeast BC domain (Saccharomyces cerevisiae, UniProt Q00955, E477R); test: radioactive binding assay, E477R mutant; conditions: read-out: Kd (nM) (radiactive assay)
T5 construct: Residues 2-581 of yeast ACC were sub-cloned into the pET28a vector; made in house; host or cells: E. coli
T5 sequence (Q00955 2-581 E477R): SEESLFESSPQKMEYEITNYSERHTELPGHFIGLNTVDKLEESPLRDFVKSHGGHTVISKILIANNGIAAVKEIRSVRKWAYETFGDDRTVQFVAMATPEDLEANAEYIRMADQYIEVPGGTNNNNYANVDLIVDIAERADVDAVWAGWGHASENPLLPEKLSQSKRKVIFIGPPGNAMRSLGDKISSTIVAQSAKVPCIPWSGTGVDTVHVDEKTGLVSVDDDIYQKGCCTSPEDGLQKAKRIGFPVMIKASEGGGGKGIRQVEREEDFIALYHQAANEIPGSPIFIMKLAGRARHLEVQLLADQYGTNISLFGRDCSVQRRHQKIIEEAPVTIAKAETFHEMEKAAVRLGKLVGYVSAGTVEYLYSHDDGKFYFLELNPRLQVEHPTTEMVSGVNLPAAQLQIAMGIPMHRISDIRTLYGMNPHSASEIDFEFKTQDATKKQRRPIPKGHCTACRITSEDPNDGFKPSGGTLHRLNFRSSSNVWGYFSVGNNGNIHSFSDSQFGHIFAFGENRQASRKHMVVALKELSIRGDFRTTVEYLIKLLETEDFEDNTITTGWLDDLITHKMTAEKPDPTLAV
Description: as §1

[6] = biological target: T6, N485G mutant yeast BC domain (Saccharomyces cerevisiae, UniProt Q00955, N485G); test: radioactive binding assay, N485G mutant; conditions: read-out: Kd (nM) (radiactive assay)
T6 construct: Residues 2-581 of yeast ACC were sub-cloned into the pET28a vector; made in house; host or cells: E. coli
T6 sequence (Q00955 2-581 N485G): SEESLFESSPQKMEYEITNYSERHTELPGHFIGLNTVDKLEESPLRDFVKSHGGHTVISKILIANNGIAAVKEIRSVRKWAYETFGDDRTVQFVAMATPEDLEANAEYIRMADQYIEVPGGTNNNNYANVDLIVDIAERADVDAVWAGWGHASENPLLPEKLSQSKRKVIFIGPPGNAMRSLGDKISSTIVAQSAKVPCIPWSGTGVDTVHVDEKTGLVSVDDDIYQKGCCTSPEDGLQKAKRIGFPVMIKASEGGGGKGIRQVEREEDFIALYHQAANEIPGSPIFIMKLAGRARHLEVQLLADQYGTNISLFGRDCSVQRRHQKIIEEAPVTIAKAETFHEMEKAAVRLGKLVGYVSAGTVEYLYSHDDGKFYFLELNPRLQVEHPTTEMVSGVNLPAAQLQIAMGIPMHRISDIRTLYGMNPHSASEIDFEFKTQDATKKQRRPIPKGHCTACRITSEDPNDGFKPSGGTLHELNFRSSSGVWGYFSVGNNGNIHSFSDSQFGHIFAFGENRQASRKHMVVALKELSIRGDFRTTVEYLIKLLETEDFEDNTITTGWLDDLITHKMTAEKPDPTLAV
Description: as §1

[7] = biological target: T7, W487R mutant yeast BC domain (Saccharomyces cerevisiae, UniProt Q00955, W487R); test: radioactive binding assay, W487R mutant; conditions: up to 60 nM soraphen A, 10 nM protein, read-out: Kd (nM) (radiactive assay)
T7 construct: Residues 2-581 of yeast ACC were sub-cloned into the pET28a vector; made in house; host or cells: E. coli
T7 sequence (Q00955 2-581 W487R): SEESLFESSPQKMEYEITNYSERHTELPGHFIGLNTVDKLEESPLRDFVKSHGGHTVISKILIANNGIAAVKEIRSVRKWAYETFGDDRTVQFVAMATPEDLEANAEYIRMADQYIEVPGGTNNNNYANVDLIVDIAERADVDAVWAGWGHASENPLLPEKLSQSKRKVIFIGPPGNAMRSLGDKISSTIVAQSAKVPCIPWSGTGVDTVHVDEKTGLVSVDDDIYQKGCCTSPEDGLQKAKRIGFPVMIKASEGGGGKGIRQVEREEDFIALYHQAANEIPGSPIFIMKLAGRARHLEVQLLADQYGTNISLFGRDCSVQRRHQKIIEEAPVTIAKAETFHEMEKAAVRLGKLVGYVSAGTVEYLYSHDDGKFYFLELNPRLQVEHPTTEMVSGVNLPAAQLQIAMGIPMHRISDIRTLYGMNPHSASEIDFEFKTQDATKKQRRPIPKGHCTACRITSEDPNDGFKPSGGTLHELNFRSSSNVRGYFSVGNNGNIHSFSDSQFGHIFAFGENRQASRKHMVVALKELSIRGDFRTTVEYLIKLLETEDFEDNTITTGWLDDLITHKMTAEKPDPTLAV
Description: as §1

[8] = biological target: T8, F510I mutant yeast BC domain (Saccharomyces cerevisiae, UniProt Q00955, F510I); test: radioactive binding assay, F510I mutant; conditions: read-out: Kd (nM) (radiactive assay)
T8 construct: Residues 2-581 of yeast ACC were sub-cloned into the pET28a vector; made in house; host or cells: E. coli
T8 sequence (Q00955 2-581 F510I): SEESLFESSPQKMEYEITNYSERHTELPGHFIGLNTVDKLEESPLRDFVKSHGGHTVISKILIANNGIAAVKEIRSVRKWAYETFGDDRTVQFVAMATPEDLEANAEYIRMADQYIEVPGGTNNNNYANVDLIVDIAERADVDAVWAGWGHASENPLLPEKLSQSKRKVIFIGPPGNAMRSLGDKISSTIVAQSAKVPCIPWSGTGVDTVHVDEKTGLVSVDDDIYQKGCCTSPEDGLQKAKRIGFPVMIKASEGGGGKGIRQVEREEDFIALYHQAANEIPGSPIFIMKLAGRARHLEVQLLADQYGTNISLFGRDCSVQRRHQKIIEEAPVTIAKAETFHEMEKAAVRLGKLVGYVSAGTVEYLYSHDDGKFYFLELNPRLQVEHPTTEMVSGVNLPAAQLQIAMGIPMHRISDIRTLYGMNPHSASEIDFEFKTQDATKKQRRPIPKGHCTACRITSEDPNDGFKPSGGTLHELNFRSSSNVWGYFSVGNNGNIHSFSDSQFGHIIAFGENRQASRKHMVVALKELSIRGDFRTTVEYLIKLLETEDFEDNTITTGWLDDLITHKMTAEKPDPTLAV
Description: as §1

[9] = biological target: T1, Wild-type yeast BC domain; test: fluorescence-based binding assay (Trp emission), wild-type; conditions: 50 nM enzyme
Description: (§2) We have developed a fluorescence-based binding assay using our structural information, which monitored the increase in Trp emission upon soraphen binding. The binding buffer initially contained 100 mM Tris (pH 8.0), 100 mM NaCl, and 50 nM wild-type or mutant enzyme, and increasing concentrations of soraphen A was titrated into the solution. The observed binding curve is fitted using conventional methods or the tight-binding model where appropriate.
(§3) We next developed a fluorescence-based binding assay using the structural information. […] There is also a slight blue shift in the fluorescence emission maximum upon soraphen binding. The observed increase in Trp fluorescence as a function of soraphen concentration can be easily fit to a one-site binding model (FIG. 5), confirming that there is a single binding site for soraphen in the BC domain. The binding affinity obtained from this fluorescence assay is generally in good agreement with that based on the radioactive binding assay (Table 3) (Weatherly et al., supra (2004)). Compared to the radioactive assay, the fluorescence assay has the advantage that it can measure affinity between 1 nM to 10 μM, whereas the radioactive assay is limited to Kd values […] ˜50 nM.

[10] = biological target: T2, I69E mutant yeast BC domain; test: fluorescence-based binding assay, I69E mutant; conditions: 50 nM enzyme
Description: as §2, §3

[11] = biological target: T3, K73R mutant yeast BC domain; test: fluorescence-based binding assay, K73R mutant
Description: as §2, §3

[12] = biological target: T5, E477R mutant yeast BC domain; test: fluorescence-based binding assay, E477R mutant; conditions: 50 nM enzyme
Description: as §2, §3

[13] = biological target: T6, N485G mutant yeast BC domain; test: fluorescence-based binding assay, N485G mutant; conditions: 50 nM enzyme
Description: as §2, §3

[14] = biological target: T8, F510I mutant yeast BC domain; test: fluorescence-based binding assay, F510I mutant
Description: as §2, §3

[15] = biological target: T7, W487R mutant yeast BC domain; test: fluorescence-based binding assay, W487R mutant; conditions: W487R mutant (data not shown)
Description: as §2, §3

BC domain of human ACC1 = biological target: T9, BC domain of human ACC1 (Homo sapiens, UniProt Q13085); test: binding to BC domain of human ACC1 (unpublished results)
T9 construct: the BC domains of human ACC1 and ACC2

BC domain of human ACC2 = biological target: T10, BC domain of human ACC2 (Homo sapiens, UniProt O00763); test: binding to BC domain of human ACC2 (unpublished results)
T10 construct: the BC domains of human ACC1 and ACC2

[16] = biological target: T11, active site of yeast BC domain (Saccharomyces cerevisiae, UniProt Q00955); test: binding of fluorescent ATP analog (Mant-ATP) to active site; conditions: preliminary experiments, unpublished data
T11 construct: Residues 2-581 of yeast ACC were sub-cloned into the pET28a vector; made in house; host or cells: E. coli BL21(DE3) Rosetta
T11 sequence (Q00955 2-581): as the sequence (Q00955 2-581) above

[17] = biological target: T1, Wild-type yeast BC domain; test: native gel electrophoresis assay, wild-type BC domain; conditions: 12% native gel
Description: (§4) FIG. 7. […] Schematic drawing of the dimer of E. coli BC subunit in complex with ATP (Thoden et al., supra 2000). The dimer axis is indicated with the magenta oval. […] (B). Native gel (12%) showing the electrophoretic mobility of wild-type and K73R mutant of yeast BC domain in the absence or presence of soraphen. […] Each lane was loaded with 20 μg of protein in 10 μl.
(§5) To obtain experimental evidence for the effects of soraphen A on the oligomerization state of BC domains, we examined the mobility of the yeast BC domain in a native gel electrophoresis assay.

[18] = biological target: T12, K73R mutant of the BC domain (Saccharomyces cerevisiae, UniProt Q00955, K73R); test: native gel electrophoresis assay, K73R mutant; conditions: K73R mutant of yeast BC domain, 12% native gel
T12 construct: Residues 2-581 of yeast ACC were sub-cloned into the pET28a vector; made in house; host or cells: E. coli
Description: as §4, §5

[19] = biological target: BC domain of eukaryotic ACCs; conditions: literature; cited from earlier work
bacterial BC subunits = conditions: literature; cited from earlier work
[20] = biological target: yeast ACC Ser77 to Tyr mutant (Saccharomyces cerevisiae, UniProt Q00955, S77Y); conditions: yeast ACC with Ser77 mutated to Tyr, literature; cited from earlier work
ACC = conditions: kinetic data, literature; cited from earlier work
[21] = biological target: K73R mutation of yeast ACC (Saccharomyces cerevisiae, UniProt Q00955, K73R); conditions: cited from earlier work
[22] = literature SAR, in words; cited from earlier work

CO[C@H]1CCCC[C@@H](c2ccccc2)OC(=O)[C@@H](C)[C@@]2(O)O[C@H]([C@@H](C)[C@H](O)[C@H]2OC)[C@@H](C)/C=C/[C@H]1OC [soraphen A]
Kd [1]: 2 ± 0.9 nM | Kd [2]: > 60 nM | Kd [3]: > 60 nM | Kd [4]: > 60 nM | Kd [5]: 24.7 ± 10.4 nM | Kd [6]: 2.7 ± 0.4 nM | Kd [7]: > 60 nM | Kd [8]: 5.7 ± 1 nM | Kd [9]: 3.9 ± 0.7 nM | Kd [10]: 104 ± 18 nM | Kd (in words) ([11]; K73R mutant): micromolar range | loss in affinity for soraphen ([11]; K73R mutant versus wild-type): 500 fold | Kd ([11]; K73R yeast BC domain, 50 nM enzyme): 2010 ± 174 nM | Kd [12]: 274 ± 30 nM | Kd [13]: 55 ± 4 nM | impact on the affinity for soraphen ([14]; F510I mutation versus wild-type): minor impact | Kd ([14]; F510I yeast BC domain, 50 nM enzyme): 10.6 ± 4.8 nM | fluorescence change in the presence of soraphen [15]: little fluorescence change | Kd (BC domain of human ACC1): ~1 nM | Kd (BC domain of human ACC2): ~1 nM | interference with the binding of Mant-ATP to the active site [16]: does not interfere | electrophoretic mobility in native gel in the presence of soraphen A [17]: a sharp band is observed, with the fastest migrating speed | electrophoretic mobility in native gel in the presence of soraphen A [18]: not affected | Kd [19]: ~1 nM | effect on bacterial BC subunits (bacterial BC subunits): no effect | sensitivity of the enzyme to soraphen A [20]: insensitive | mode of inhibition with respect to the substrates of ACC (ACC): noncompetitive | resistance to soraphen A [21]: resistance

soraphen F
activity relative to soraphen A [22]: moderate loss of activity
